For one test, the target named is CDK6/CyclinD3 (Homo sapiens, UniProt Q00534). Nature of the test: ADP Glo kinase assay, CDK6/CyclinD3. Conditions: compound at 1 μM, read-out: Residual enzymatic activity (%) at 1 μM, CDK6 D3. In kind it is biochemical. The method, then: (§1) Test compounds are used in 1:3 serial dilutions for 10 concentrations (from 10-0.0005 μM) in 0.5% DMSO. […] The kinase reactions are run for optimised time period at room temperature and then the reaction is stopped by adding 5 μL of ADP Glo reagent.
For orientation: ADP-Glo first removes unused ATP, then detects ADP through luciferase.

The target in another test is CDK1/CyclinB (Homo sapiens, UniProt P06493). Nature of the test: ADP Glo kinase assay, CDK1/CyclinB. Conditions: compound at 1 μM, read-out: Residual enzymatic activity (%) at 1 μM, CDK1 B. In kind it is biochemical. The method, then: as §1
For a further test, the target named is T1, FLT3-ITD (Homo sapiens, UniProt P36888).
T1 sequence (P36888 1-993): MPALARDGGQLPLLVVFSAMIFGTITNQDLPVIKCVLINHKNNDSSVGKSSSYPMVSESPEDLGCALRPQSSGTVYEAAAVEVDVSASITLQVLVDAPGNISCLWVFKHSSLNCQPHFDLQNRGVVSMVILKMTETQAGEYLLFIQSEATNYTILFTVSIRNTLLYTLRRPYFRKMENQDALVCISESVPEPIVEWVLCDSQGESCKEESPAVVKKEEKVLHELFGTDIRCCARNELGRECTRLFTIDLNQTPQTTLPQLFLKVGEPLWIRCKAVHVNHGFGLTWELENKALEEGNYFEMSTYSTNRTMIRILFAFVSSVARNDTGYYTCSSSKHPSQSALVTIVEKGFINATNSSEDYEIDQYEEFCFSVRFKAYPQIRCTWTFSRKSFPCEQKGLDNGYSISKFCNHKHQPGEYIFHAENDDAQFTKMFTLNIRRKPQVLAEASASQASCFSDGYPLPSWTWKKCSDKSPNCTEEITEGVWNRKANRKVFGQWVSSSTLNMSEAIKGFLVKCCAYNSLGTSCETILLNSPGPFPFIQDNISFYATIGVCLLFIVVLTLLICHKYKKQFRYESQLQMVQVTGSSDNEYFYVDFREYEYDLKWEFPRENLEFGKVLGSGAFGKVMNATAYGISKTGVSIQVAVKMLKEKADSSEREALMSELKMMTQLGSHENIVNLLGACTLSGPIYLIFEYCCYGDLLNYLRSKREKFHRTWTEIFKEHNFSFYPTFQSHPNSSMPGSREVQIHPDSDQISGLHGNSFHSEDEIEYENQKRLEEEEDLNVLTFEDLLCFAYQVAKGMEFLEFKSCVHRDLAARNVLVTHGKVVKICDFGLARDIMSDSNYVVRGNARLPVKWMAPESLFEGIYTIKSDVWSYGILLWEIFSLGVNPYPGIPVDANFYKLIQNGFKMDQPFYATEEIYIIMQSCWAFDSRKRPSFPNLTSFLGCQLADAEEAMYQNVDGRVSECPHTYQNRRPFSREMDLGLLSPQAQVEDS
Description: ADP Glo kinase assay, FLT3-ITD. It is filed as biochemical. Particulars: Km ATP 100 μM, read-out: Enzymatic inhibition, Ki, FLT3-ITD. The method, then: as §1

In another test the target is CDK7/CyclinH/Mat1 (Homo sapiens, UniProt P50613). Nature of the test: ADP Glo kinase assay, CDK7/CyclinH/Mat1. Conditions: compound at 1 μM, read-out: Residual enzymatic activity (%) at 1 μM, CDK7 H. It is filed as biochemical. The method, then:
as §1

The next test deals with CDK9/CyclinT1 (Homo sapiens, UniProt P50750). Description: ADP Glo kinase assay, CDK9/CyclinT1. Particulars: CDK9/CyclinT1; Km ATP; read-out: Enzymatic inhibition, Ki, CDK9 T1. It is filed as biochemical. The method, then:
as §1

A further test concerns the target CDK2/CyclinA2 (Homo sapiens, UniProt P24941). Nature of the test: ADP Glo kinase assay, CDK2/CyclinA2. It is filed as biochemical. Particulars: compound at 1 μM, read-out: Residual enzymatic activity (%) at 1 μM, CDK2 A. The method, then: as §1
Another test has as its system MV-4-11. Description: Proliferation assay (resazurin, leukemia cell lines), MV-4-11. In kind it is cell-based. Conditions: Homo sapiens, MV4-11, read-out: 72 h Growth inhibition GI50, MV-4-11 cells. The text has this:
The following compounds were used as comparators.
(Resazurin is reduced to fluorescent resorufin, in cell work by metabolically active cells.)

Usually Ki stands for the dissociation constant of the complex between target and ligand, obtained from inhibition or displacement. One may read the GI50 as the concentration at which growth is held to half of that of the control.

Sequence of CDK9/CyclinT1 (P50750 whole entry, species assumed): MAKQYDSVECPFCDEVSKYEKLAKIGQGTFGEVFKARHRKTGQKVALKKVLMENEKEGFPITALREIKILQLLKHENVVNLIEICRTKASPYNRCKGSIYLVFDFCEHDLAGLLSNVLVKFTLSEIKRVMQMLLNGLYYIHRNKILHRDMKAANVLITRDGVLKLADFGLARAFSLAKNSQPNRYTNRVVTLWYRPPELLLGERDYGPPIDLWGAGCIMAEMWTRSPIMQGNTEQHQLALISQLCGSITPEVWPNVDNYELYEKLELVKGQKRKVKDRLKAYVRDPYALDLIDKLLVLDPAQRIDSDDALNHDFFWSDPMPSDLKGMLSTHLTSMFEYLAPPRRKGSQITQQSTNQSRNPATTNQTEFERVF
Sequence of CDK9/CyclinT1 (O60563 whole entry partner, species assumed): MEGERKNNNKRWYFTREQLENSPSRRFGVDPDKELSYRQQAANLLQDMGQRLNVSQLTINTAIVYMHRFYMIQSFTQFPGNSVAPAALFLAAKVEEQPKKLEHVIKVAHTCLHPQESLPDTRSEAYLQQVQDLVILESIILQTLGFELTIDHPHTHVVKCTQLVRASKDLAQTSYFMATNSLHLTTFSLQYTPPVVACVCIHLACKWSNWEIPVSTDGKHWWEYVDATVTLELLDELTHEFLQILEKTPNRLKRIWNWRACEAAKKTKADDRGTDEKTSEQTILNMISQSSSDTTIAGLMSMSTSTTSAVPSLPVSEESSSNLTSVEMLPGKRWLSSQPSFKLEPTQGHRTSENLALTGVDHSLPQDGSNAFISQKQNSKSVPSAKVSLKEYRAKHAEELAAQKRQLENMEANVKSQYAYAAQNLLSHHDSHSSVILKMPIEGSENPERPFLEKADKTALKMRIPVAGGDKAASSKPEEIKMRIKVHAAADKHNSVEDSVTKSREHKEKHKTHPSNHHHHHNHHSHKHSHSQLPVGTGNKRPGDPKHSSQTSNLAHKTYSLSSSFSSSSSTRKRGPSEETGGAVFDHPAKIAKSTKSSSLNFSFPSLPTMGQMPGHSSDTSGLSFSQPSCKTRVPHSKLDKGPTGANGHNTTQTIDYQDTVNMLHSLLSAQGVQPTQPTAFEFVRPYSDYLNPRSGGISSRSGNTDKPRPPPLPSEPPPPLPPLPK
Sequence of CDK1/CyclinB (P06493 whole entry, species assumed): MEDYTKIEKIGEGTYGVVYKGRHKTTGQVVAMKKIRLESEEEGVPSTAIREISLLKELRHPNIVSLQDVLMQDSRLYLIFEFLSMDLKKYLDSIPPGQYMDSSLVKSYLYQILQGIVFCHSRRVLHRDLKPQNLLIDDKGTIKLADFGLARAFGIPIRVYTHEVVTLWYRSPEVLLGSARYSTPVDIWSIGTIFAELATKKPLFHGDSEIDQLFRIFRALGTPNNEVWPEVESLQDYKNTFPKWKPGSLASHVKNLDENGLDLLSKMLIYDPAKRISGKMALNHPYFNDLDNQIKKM
Sequence of CDK1/CyclinB (P14635 whole entry partner, species assumed): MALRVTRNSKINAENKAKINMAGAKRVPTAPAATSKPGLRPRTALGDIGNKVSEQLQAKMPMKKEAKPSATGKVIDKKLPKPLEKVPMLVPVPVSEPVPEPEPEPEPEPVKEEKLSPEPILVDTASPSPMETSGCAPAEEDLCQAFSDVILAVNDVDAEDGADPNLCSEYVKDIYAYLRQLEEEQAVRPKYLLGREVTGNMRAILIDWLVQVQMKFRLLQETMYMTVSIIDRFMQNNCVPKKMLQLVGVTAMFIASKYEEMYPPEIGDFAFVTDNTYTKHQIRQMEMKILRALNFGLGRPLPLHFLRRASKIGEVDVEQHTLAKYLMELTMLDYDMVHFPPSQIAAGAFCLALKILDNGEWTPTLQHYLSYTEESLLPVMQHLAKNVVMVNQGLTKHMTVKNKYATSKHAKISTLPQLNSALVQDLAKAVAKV
Sequence of CDK7/CyclinH/Mat1 (P50613 whole entry, species assumed): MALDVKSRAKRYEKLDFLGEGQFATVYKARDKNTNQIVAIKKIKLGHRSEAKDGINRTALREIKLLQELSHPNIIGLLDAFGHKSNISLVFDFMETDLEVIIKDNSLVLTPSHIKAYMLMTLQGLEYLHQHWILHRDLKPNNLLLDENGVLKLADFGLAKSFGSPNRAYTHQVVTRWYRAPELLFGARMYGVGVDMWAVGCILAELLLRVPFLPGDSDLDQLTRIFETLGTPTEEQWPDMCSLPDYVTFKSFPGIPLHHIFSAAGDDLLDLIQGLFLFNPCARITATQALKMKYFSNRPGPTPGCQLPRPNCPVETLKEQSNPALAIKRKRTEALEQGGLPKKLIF
Sequence of CDK7/CyclinH/Mat1 (P51946 whole entry partner, species assumed): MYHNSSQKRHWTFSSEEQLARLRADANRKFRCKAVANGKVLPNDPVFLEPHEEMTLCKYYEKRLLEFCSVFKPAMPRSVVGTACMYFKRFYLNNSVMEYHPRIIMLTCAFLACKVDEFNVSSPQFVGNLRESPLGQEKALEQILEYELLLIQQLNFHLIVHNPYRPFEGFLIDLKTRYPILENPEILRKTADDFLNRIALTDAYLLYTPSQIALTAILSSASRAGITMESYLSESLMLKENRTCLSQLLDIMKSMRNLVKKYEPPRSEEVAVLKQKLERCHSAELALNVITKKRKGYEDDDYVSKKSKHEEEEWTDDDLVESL
Sequence of CDK7/CyclinH/Mat1 (P51948 whole entry partner, species assumed): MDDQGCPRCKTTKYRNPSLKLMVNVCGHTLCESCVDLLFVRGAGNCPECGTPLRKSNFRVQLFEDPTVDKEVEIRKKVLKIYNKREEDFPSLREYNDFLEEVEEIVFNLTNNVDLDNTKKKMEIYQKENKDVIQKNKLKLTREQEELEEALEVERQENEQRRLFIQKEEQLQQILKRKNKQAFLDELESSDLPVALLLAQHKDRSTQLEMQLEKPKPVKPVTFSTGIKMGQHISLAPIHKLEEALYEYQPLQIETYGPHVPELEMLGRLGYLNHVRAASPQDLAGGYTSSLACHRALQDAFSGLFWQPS
Sequence of CDK6/CyclinD3 (Q00534 whole entry, species assumed): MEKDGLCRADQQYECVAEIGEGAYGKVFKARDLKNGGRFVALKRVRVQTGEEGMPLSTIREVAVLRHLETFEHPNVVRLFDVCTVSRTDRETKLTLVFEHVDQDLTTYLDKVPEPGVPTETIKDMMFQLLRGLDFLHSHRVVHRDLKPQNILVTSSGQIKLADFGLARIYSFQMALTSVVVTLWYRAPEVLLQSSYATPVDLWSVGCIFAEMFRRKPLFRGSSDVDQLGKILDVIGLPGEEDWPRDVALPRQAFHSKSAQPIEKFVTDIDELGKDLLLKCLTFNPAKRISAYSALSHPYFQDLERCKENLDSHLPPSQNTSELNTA
Sequence of CDK6/CyclinD3 (P30281 whole entry partner, species assumed): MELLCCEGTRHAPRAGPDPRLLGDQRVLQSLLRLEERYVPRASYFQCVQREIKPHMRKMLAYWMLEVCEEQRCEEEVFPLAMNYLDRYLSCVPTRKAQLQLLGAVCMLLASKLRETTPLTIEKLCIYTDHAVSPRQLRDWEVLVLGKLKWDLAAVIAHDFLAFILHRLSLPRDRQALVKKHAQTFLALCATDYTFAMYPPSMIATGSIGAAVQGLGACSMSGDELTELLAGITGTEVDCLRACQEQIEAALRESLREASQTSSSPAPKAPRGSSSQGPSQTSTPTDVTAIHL

With `CN(C)c1ccc(Nc2nccc(-c3cnc4ccc(C5=CCN(C(=O)OC(C)(C)C)CC5)cn34)n2)cn1` [Compound 67, Tert-butyl 4-(3-(2-((6-(dimethylamino)pyridin-3-yl)amino)pyrimidin-4-yl)imidazo[1,2-a]pyridin-6-yl)-3,6-dihydropyridine-1(2H)-carboxylate], the remaining activity at 1 µM at CDK6/CyclinD3 amounted to 78%; on CDK1/CyclinB, 67%; at CDK7/CyclinH/Mat1, 68%; at CDK2/CyclinA2 it was 93%. Also, the Ki is over 500 nM on FLT3-ITD and 1630 nM on CDK9/CyclinT1. In addition, the GI50 with MV-4-11 was 362 nM.

On to `CN(C)c1ccc(Nc2nccc(-c3cnc4ccc(-c5ccc(F)nc5)cn34)n2)cn1` [Compound 68, N^5-(4-(6-(6-Fluoropyridin-3-yl)imidazo[1,2-a]pyridin-3-yl)pyrimidin-2-yl)-N^2,N^2-dimethylpyridine-2,5-diamine], for which the remaining activity at 1 µM turned out to be 81% on CDK6/CyclinD3, 37% at CDK1/CyclinB, 71% on CDK7/CyclinH/Mat1 and 61% on CDK2/CyclinA2. In addition, the Ki on FLT3-ITD turned out to be 62 nM; at CDK9/CyclinT1, 174 nM. The GI50 in the test on MV-4-11 was determined as 13 nM.

As for `CS(=O)(=O)N1CCN(c2ccc(Nc3nccc(-c4cnc5ccc(-c6cc7ccccc7o6)cn45)n3)cn2)CC1` [Compound 52, 4-(6-(Benzofuran-2-yl)imidazo[1,2-a]pyridin-3-yl)-N-(6-(4-(methylsulfonyl)piperazin-1-yl)pyridin-3-yl)pyrimidin-2-amine], the remaining activity at 1 µM on CDK6/CyclinD3 came out at 100%; at CDK1/CyclinB, 62%; on CDK7/CyclinH/Mat1, 99%; at CDK2/CyclinA2, 97%. For the same molecule, the inhibitory constant (Ki) on FLT3-ITD is 57 nM; at CDK9/CyclinT1, over 500 nM. Also, in the test on MV-4-11, the GI50 amounted to 23 nM.

Turning to `CCS(=O)(=O)N1CCN(c2ccc(Nc3nccc(-c4cnc5ccc(-c6ccccc6)cn45)n3)cn2)CC1` [Compound 60, N-(6-(4-(Ethylsulfonyl)piperazin-1-yl)pyridin-3-yl)-4-(6-phenylimidazo[1,2-a]pyridin-3-yl)pyrimidin-2-amine], the remaining activity at 1 µM at CDK6/CyclinD3 was 100%; at CDK1/CyclinB, 61%; on CDK7/CyclinH/Mat1, 100%; on CDK2/CyclinA2 it was 91%. Also, the figures for the inhibition constant (Ki) at FLT3-ITD and on CDK9/CyclinT1 were 142 nM and 509 nM, respectively. In addition, the GI50 in the test on MV-4-11 came to 20 nM.

`COc1cc(F)cc(-c2ccc3ncc(-c4ccnc(Nc5ccc(N6CCN(C)CC6)nc5)n4)n3c2)c1` [Compound 64, 4-(6-(3-Fluoro-5-methoxyphenyl)imidazo[1,2-a]pyridin-3-yl)-N-(6-(4-methylpiperazin-1-yl)pyridin-3-yl)pyrimidin-2-amine]: the remaining activity at 1 µM on CDK6/CyclinD3 worked out at 66%; at CDK1/CyclinB, 57%; on CDK7/CyclinH/Mat1, 38%; at CDK2/CyclinA2 it was 90%. Moreover, the figures for the Ki at FLT3-ITD and at CDK9/CyclinT1 were 6 nM and 26 nM, respectively. Also, the GI50 in the test with MV-4-11 was found to be 2 nM.

With `CCS(=O)(=O)N1CCN(c2ccc(Nc3nccc(-c4cnc5ccc(-c6ccc(F)nc6)cn45)n3)cn2)CC1` [Compound 61, N-(6-(4-(Ethylsulfonyl)piperazin-1-yl)pyridin-3-yl)-4-(6-(6-fluoropyridin-3-yl)imidazo[1,2-a]pyridin-3-yl)pyrimidin-2-amine], the remaining activity at 1 µM on CDK6/CyclinD3 was determined as 72%; on CDK1/CyclinB, 38%; on CDK7/CyclinH/Mat1 it was 57%; at CDK2/CyclinA2, 71%. Further, the Ki at FLT3-ITD is 149 nM; at CDK9/CyclinT1 it was 428 nM. For the same molecule, the GI50 with MV-4-11 was 20 nM.

Take `CC(C)N1CCN(c2ccc(Nc3nccc(-c4cnc5ccc(-c6cncnc6)cn45)n3)cn2)CC1` [Compound 53, N-(6-(4-Isopropylpiperazin-1-yl)pyridin-3-yl)-4-(6-(pyrimidin-5-yl)imidazo[1,2-a]pyridin-3-yl)pyrimidin-2-amine]: the remaining activity at 1 µM at CDK6/CyclinD3 was determined as 66%; at CDK1/CyclinB it was 71%; on CDK7/CyclinH/Mat1 it was 56%; at CDK2/CyclinA2, 75%. Also, the Ki at FLT3-ITD is 71 nM; on CDK9/CyclinT1, 92 nM. The GI50 in the test on MV-4-11 was 46 nM.

For `O=C1NCCC12CCN(c1ccc(Nc3nccc(-c4cnc5ccc(-c6ccccc6)cn45)n3)cn1)CC2` [Compound 72, 8-(5-((4-(6-Phenylimidazo[1,2-a]pyridin-3-yl)pyrimidin-2-yl)amino)pyridin-2-yl)-2,8-diazaspiro[4.5]decan-1-one], the remaining activity at 1 µM was 73% on CDK6/CyclinD3, 75% at CDK1/CyclinB, 59% at CDK7/CyclinH/Mat1 and 64% on CDK2/CyclinA2. The Ki at FLT3-ITD is 55 nM; at CDK9/CyclinT1 it was over 500 nM. In the test on MV-4-11, the GI50 was 5 nM.

For the molecule `CS(=O)(=O)N1CCN(c2ccc(Nc3nccc(-c4cnc5ccc(-c6ccc(F)nc6)cn45)n3)cn2)CC1` [Compound 56, 4-(6-(6-Fluoropyridin-3-yl)imidazo[1,2-a]pyridin-3-yl)-N-(6-(4-(methylsulfonyl)piperazin-1-yl)pyridin-3-yl)pyrimidin-2-amine], the remaining activity at 1 µM at CDK6/CyclinD3 was 96%; on CDK1/CyclinB, 78%; at CDK7/CyclinH/Mat1, 94%; on CDK2/CyclinA2, 36%. The Ki on FLT3-ITD came out at 84 nM; at CDK9/CyclinT1, 380 nM. The GI50 in the test on MV-4-11 turned out to be 23 nM.

In the case of `O=C(c1ccco1)N1CCN(c2ccc(Nc3nccc(-c4cnc5ccc(-c6ccccc6)cn45)n3)cn2)CC1` [Compound 63, Furan-2-yl(4-(5-((4-(6-phenylimidazo[1,2-a]pyridin-3-yl)pyrimidin-2-yl)amino)pyridin-2-yl)piperazin-1-yl)methanone], the remaining activity at 1 µM is 100% on CDK6/CyclinD3, 26% at CDK1/CyclinB, 93% at CDK7/CyclinH/Mat1 and 49% at CDK2/CyclinA2. The Ki on FLT3-ITD worked out at 82 nM; at CDK9/CyclinT1 it was 242 nM. Also, in the test with MV-4-11, the GI50 worked out at 25 nM.

As for `CN1CCN(c2ccc(Nc3nccc(-c4cnc5ccc(-c6cnn(C(F)F)c6)cn45)n3)cn2)CC1` [Compound 70, 4-(6-(1-(Difluoromethyl)-1H-pyrazol-4-yl)imidazo[1,2-a]pyridin-3-yl)-N-(6-(4-methylpiperazin-1-yl)pyridin-3-yl)pyrimidin-2-amine], the remaining activity at 1 µM is 57% at CDK6/CyclinD3, 32% on CDK1/CyclinB, 40% on CDK7/CyclinH/Mat1 and 55% on CDK2/CyclinA2. The inhibition constant (Ki) on FLT3-ITD is 12 nM; on CDK9/CyclinT1 it was 7 nM. Besides, the GI50 in the test with MV-4-11 came to 8 nM.

Regarding `CN1CCN(c2ccc(Nc3nccc(-c4cnc5ccc(-c6ccccc6)cn45)n3)nc2)CC1` [Comparator compound A, N-(5-(4-methylpiperazin-1-yl)pyridin-2-yl)-4-(6-phenylimidazo[1,2-a]pyridin-3-yl)pyrimidin-2-amine, reference compound], the figures for the remaining activity at 1 µM at CDK1/CyclinB, at CDK7/CyclinH/Mat1 and on CDK2/CyclinA2 were 87%, 66% and 86%, respectively. Moreover, at CDK9/CyclinT1, the Ki turned out to be 83 nM.

Source of the values: patent US20240158391A1, “DERIVATIVES OF 4-(IMIDAZO[1,2-A]PYRIDIN-3-YL)-N-(PYRIDIN-3-YL) PYRIMIDIN-2- AMINE FOR TREATING PROLIFERATIVE DISEASES AND CONDITIONS” (AUCENTRA THERAPEUTICS PTY LTD, priority 2019, published 2024).
